In US10703764B2, “Benzopiperazine compositions as BET bromodomain inhibitors” (FORMA Therapeutics, Inc., priority 2013, dated 2020):
Read-outs that look alike come from different tables or passages of the source.

Tests used:
BRD4 BD1 = molecular target: T1, BRD4 BD1 (Homo sapiens, UniProt O60885); experiment: AlphaScreen binding assay, BRD4 Bromodomain 1
T1 construct: made in house
Summary of the method: (§1)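 An AlphaScreen competition format was used with His-BRD4 BD1 or BD2 and biotin-H4 K5/8/12/16-acetyl peptide, each at matched final levels of 50 nM (BD1) or 100 nM (BD2). Incubation in HEPES/NaCl buffer with 0.1% BSA and 0.01% Triton X-100 ran ≥1 h before IC50 determination.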

BRD4 BD2 = molecular target: T2, BRD4 BD2 (Homo sapiens, UniProt O60885); experiment: AlphaScreen binding assay, BRD4 Bromodomain 2
T2 construct: made in house
Summary of the method: as §1

MV4-11 cells = experiment: Oncology cell growth assay (3-day proliferation, CellTiter-Glo); type: cell-based; settings: Homo sapiens, AML cell line MV4-11, 72 hours, compounds grouped by IC50 range, read-out: MV4-11 IC50 (inhibition of proliferation, gIC50)
Summary of the method: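 Compounds were serially diluted 3-fold in DMSO, giving final well concentrations from 10 down to 0.0045 μM. MV4-11 cells were then seeded at 3000 cells/well in RPMI 1640 with 10% FBS and incubated 72 hours. CellTiter-Glo signal was measured and gIC50 obtained by four-parameter logistic regression.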

IC50 (BRD4 BD1) [nM] | IC50 (BRD4 BD2) [nM] | IC50 (MV4-11 cells; MV4-11, 72 h) [nM] | Compound | IC50 (MV4-11 cells) [nM]
1000 to 10000 | < 50 | 100 to 500 | CC(=O)N1c2ccc(-c3cnn(CCO)c3)cc2N(c2nn(C)c3c(F)cccc23)C[C@@H]1C [Example I-180, 1-[(2S)-4-(7-fluoro-1-methyl-1H-indazol-3-yl)-6-[1-(2-hydroxyethyl)-1H-pyrazol-4-yl]-2-methyl-1,2,3,4-tetrahydroquinoxalin-1-yl]ethan-1-one] | –
100 to 1000 | < 50 | < 100 | CC(=O)N1c2ccc(-c3cnn(C4CCNCC4)c3)cc2N(c2nn(C)c3ccccc23)C[C@@H]1C [Example I-181, 1-[(2S)-2-methyl-4-(1-methyl-1H-indazol-3-yl)-6-[1-(piperidin-4-yl)-1H-pyrazol-4-yl]-1,2,3,4-tetrahydroquinoxalin-1-yl]ethan-1-one] | –
100 to 1000 | < 50 | 100 to 500 | CC(=O)N1c2ccc(-c3cnn(C4CCNCC4)c3)cc2N(c2nn(C)c3cnccc23)C[C@@H]1C [Example I-182, (S)-1-(2-methyl-4-(1-methyl-1H-pyrazolo[3,4-c]pyridin-3-yl)-6-(1-(piperidin-4-yl)-1H-pyrazol-4-yl)-3,4-dihydroquinoxalin-1(2H)-yl)ethanone] | –
100 to 1000 | < 50 | 100 to 500 | CC(=O)N1c2ccc(-c3cnn(C4CC4)c3)cc2N(c2nn(C)c3cccc(F)c23)C[C@@H]1C [Example I-183, 1-[(2S)-6-(1-cyclopropyl-1H-pyrazol-4-yl)-4-(4-fluoro-1-methyl-1H-indazol-3-yl)-2-methyl-1,2,3,4-tetrahydroquinoxalin-1-yl]ethan-1-one] | –
100 to 1000 | 50 to 500 | 100 to 500 | CC(=O)N1c2ccc(-c3cnn(C4CC4)c3)cc2N(c2nn(C)c3ncccc23)C[C@@H]1C [Example I-184, 1-[(2S)-6-(1-cyclopropyl-1H-pyrazol-4-yl)-2-methyl-4-{1-methyl-1H-pyrazolo[3,4-b]pyridin-3-yl}-1,2,3,4-tetrahydroquinoxalin-1-yl]ethan-1-one] | –
100 to 1000 | < 50 | < 100 | CC(=O)N1c2ccc(-c3cnn(C4CC4)c3)cc2N(c2nn(C)c3cnccc23)C[C@@H]1C [Example I-185, 1-[(2S)-6-(1-cyclopropyl-1H-pyrazol-4-yl)-2-methyl-4-{1-methyl-1H-pyrazolo[3,4-c]pyridin-3-yl}-1,2,3,4-tetrahydroquinoxalin-1-yl]ethan-1-one] | –
100 to 1000 | 50 to 500 | 100 to 500 | CC(=O)N1c2ccc(-c3cnn(C4CC4)c3)cc2N(c2nn(C)c3ccncc23)C[C@@H]1C [Example I-186, 1-[(2S)-6-(1-cyclopropyl-1H-pyrazol-4-yl)-2-methyl-4-{1-methyl-1H-pyrazolo[4,3-c]pyridin-3-yl}-1,2,3,4-tetrahydroquinoxalin-1-yl]ethan-1-one] | –
1000 to 10000 | 50 to 500 | > 500 | CC(=O)N1c2ccc(-c3cnn(C4CC4)c3)cc2N(c2nn(C)c3cccnc23)C[C@@H]1C [Example I-187, 1-[(2S)-6-(1-cyclopropyl-1H-pyrazol-4-yl)-2-methyl-4-{1-methyl-1H-pyrazolo[4,3-b]pyridin-3-yl}-1,2,3,4-tetrahydroquinoxalin-1-yl]ethan-1-one] | –
100 to 1000 | < 50 | 100 to 500 | CC(=O)N1c2ccc(-c3cnn(CCO)c3)cc2N(c2nn(C)c3cc(F)ccc23)C[C@@H]1C [Example I-188, 1-[(2S)-4-(6-fluoro-1-methyl-1H-indazol-3-yl)-6-[1-(2-hydroxyethyl)-1H-pyrazol-4-yl]-2-methyl-1,2,3,4-tetrahydroquinoxalin-1-yl]ethan-1-one] | –
1000 to 10000 | 50 to 500 | 100 to 500 | CC(=O)N1c2ccc(-c3cnn(CCO)c3)cc2N(c2nn(C)c3ccc(F)cc23)C[C@@H]1C [Example I-189, 1-[(2S)-4-(5-fluoro-1-methyl-1H-indazol-3-yl)-6-[1-(2-hydroxyethyl)-1H-pyrazol-4-yl]-2-methyl-1,2,3,4-tetrahydroquinoxalin-1-yl]ethan-1-one] | –
100 to 1000 | < 50 | 100 to 500 | CC(=O)N1c2ccc(-c3cnn(CCO)c3)cc2N(c2nn(C)c3cccc(F)c23)C[C@@H]1C [Example I-190, 1-[(2S)-4-(4-fluoro-1-methyl-1H-indazol-3-yl)-6-[1-(2-hydroxyethyl)-1H-pyrazol-4-yl]-2-methyl-1,2,3,4-tetrahydroquinoxalin-1-yl]ethan-1-one] | –
100 to 1000 | > 500 | > 500 | CC(=O)N1c2cc([N+](=O)[O-])c(-c3cnn(C4CC4)c3)cc2N(C(=O)OC(C)C)C[C@@H]1C [Example I-195, isopropyl (S)-4-acetyl-7-(1-cyclopropyl-1H-pyrazol-4-yl)-3-methyl-6-nitro-3,4-dihydroquinoxaline-1(2H)-carboxylate] | –
1000 to 10000 | > 500 | > 500 | CC(=O)N1c2cc(F)c(-c3ccc(S(C)(=O)=O)cc3)cc2N(C(=O)OC(C)C)C[C@@H]1C [Example I-196, Isopropyl (S)-4-acetyl-6-fluoro-3-methyl-7-(4-(methylsulfonyl)phenyl)-3,4-dihydroquinoxaline-1(2H)-carboxylate] | –
1000 to 10000 | > 500 | > 500 | CC(=O)Nc1cc2c(cc1-c1ccc(S(C)(=O)=O)cc1)N(C(=O)OC(C)C)C[C@H](C)N2C(C)=O [Example I-197, Isopropyl (S)-6-acetamido-4-acetyl-3-methyl-7-(4-(methylsulfonyl)phenyl)-3,4-dihydroquinoxaline-1(2H)-carboxylate] | –
1000 to 10000 | > 500 | > 500 | COC(=O)Nc1cc2c(cc1-c1ccc(S(C)(=O)=O)cc1)N(C(=O)OC(C)C)C[C@H](C)N2C(C)=O [Example I-198, Isopropyl (S)-4-acetyl-6-((methoxycarbonyl)amino)-3-methyl-7-(4-(methylsulfonyl)phenyl)-3,4-dihydroquinoxaline-1 (2H)-carboxylate] | –
1000 to 10000 | > 500 | > 500 | COc1cc2c(cc1-c1ccc(S(C)(=O)=O)cc1)N(C(=O)OC(C)C)C[C@H](C)N2C(C)=O [Example I-199, Isopropyl (S)-4-acetyl-6-methoxy-3-methyl-7-(4-(methylsulfonyl)phenyl)-3,4-dihydroquinoxaline-1(2H)-carboxylate] | –
1000 to 10000 | 50 to 500 | > 500 | CC(=O)Nc1ccc2c(c1)N(C(C)=O)[C@@H](C)CN2C(=O)OC(C)C [Example I-200, Isopropyl (S)-6-acetamido-4-acetyl-3-methyl-3,4-dihydroquinoxaline-1(2H)-carboxylate] | –
> 10000 | > 500 | > 500 | CC(=O)N1c2cc(NS(C)(=O)=O)ccc2N(C(=O)OC(C)C)C[C@@H]1C [Example I-201, Isopropyl (S)-4-acetyl-3-methyl-6-(methylsulfonamido)-3,4-dihydro quinoxaline-1(2H)-carboxylate] | –
> 10000 | > 500 | > 500 | COC(=O)Nc1ccc2c(c1)N(C(C)=O)[C@@H](C)CN2C(=O)OC(C)C [Example I-202, Isopropyl (S)-4-acetyl-6-((methoxycarbonyl)amino)-3-methyl-3,4-dihydro quinoxaline-1(2H)-carboxylate] | –
1000 to 10000 | > 500 | > 500 | CC(=O)Nc1cc2c(cc1Br)N(C(=O)OC(C)C)C[C@H](C)N2C(C)=O [Example I-203, Isopropyl (S)-6-acetamido-4-acetyl-7-bromo-3-methyl-3,4-dihydro quinoxaline-1(2H)-carboxylate] | –
100 to 1000 | 50 to 500 | > 500 | COC(=O)Nc1cc2c(cc1-c1cnn(C3CC3)c1)N(C(=O)OC(C)C)C[C@H](C)N2C(C)=O [Example I-204, Isopropyl (S)-4-acetyl-7-(1-cyclopropyl-1H-pyrazol-4-yl)-6-((methoxycarbonyl)amino)-3-methyl-3,4-dihydroquinoxaline-1(2H)-carboxylate] | –
100 to 1000 | 50 to 500 | > 500 | CC(=O)Nc1cc2c(cc1-c1cnn(CC(C)(C)O)c1)N(C(=O)OC(C)C)C[C@H](C)N2C(C)=O [Example I-205, Isopropyl (S)-6-acetamido-4-acetyl-7-(1-(2-hydroxy-2-methylpropyl)-1H-pyrazol-4-yl)-3-methyl-3,4-dihydroquinoxaline-1(2H)-carboxylate] | –

Compound | IC50 (BRD4 BD1) [nM] | IC50 (BRD4 BD2) [nM] | IC50 (MV4-11 cells; MV4-11, 72 h) [nM] | IC50 (MV4-11 cells) [nM]
CC(=O)N1c2ccc(-c3cnn(C4CCNCC4)c3)cc2N(C(=O)Oc2ccc(F)cc2F)C[C@@H]1C [Example I-191, 2,4-difluorophenyl (S)-4-acetyl-3-methyl-7-(1-(piperidin-4-yl)-1H-pyrazol-4-yl)-3,4-dihydroquinoxaline-1(2H)-carboxylate] | 100 to 1000 | < 50 | – | 100 to 500
CNC(=O)N1c2ncc(-c3cnn(C4CC4)c3)cc2N(C(=O)OC(C)C)C[C@@H]1C [Example I-194, (S)-isopropyl 7-(1-cyclopropyl-1H-pyrazol-4-yl)-3-methyl-4-(methylcarbamoyl)-3,4-dihydropyrido[2,3-b]pyrazine-1(2H)-carboxylate] | 1000 to 10000 | 50 to 500 | – | > 500
